Test results published in patent US20220204490A1, “Substituted 4-[5-(Benzofuran-2-yl)-1,2,4-Oxadiazol-3-yl]Benzoic Acid Compounds for Use in Therapy for Neuropathic Pain” (King's College London, priority 2019, published 2022).

Tests used:
[1] = test system: brain-derived neurotrophic factor (BDNF); experiment: Immunocytochemistry of BDNF in spinal cord after nerve injury; type: in vivo; conditions: rat; 14 days after injury; 3 mg/kg po every other day; versus placebo; FIG. 7
Experimental: (§1) Two groups of 11 rats were studied. In each group, the rats received partial nerve ligation of the left sciatic nerve (L5 SNL), as described above. In one group, the rats were treated with test compound; in the other group, the rats were treated with placebo. In each group, 8 animals were used for behavioral studies (for 28 days following surgery), as described below. In each group, 3 animals were used for tissue analysis (at 14 days following surgery), as described below.
(§2) Rats were treated with treatment solution or a placebo, orally, starting on the day after surgery and subsequently every other day for 4 weeks.
For treated animals, treatment solution was administered orally (po), by oral gavage, to give a dose of 3 mg/kg. […]
Multichannel fluorescence (DAPI-FITC-Texas Red filter set) images were captured using a Zeiss LSM 700 laser-scanning confocal microscope. […] Axiovision software was used to collect information on pixel immunoreactivity used for quantitative purposes. […]
FIG. 7 is a bar graph showing the BDNF level (arbitray units) in the dorsal horn ipsilateral to peripheral nerve injury for (a) rats treated with placebo and (b) rats treated with BOBA-001. Five serial sections per injured cord analysed, from 3 animals per group (n=3). […]

[2] = test system: axonal outgrowth; conditions: models of nerve injury; earlier work of the Applicant (Borthwick et al., 2016); cited from earlier work
[3] = test system: tumour necrosis factor receptor 1 (TNFR1); experiment: RT-qPCR analysis of TNFR1 expression in spinal cord after nerve injury; type: in vivo; conditions: rat; 14 days after injury; 3 mg/kg po every other day; versus placebo; FIG. 6
Experimental: as §1, §2
(§3) For treated animals, treatment solution was administered orally (po), by oral gavage, to give a dose of 3 mg/kg.
(§4) Fourteen days after injury, three rats from each group were sacrificed. […] Total RNA was isolated with the Qiagen RNeasy® Mini kit and reverse transcribed with a QuantiTect® Reverse Transcription kit (Qiagen). Levels of tumour necrosis factor α (TNFα) and tumour necrosis factor receptor 1 (TNFR1) expression were quantitated in triplicate, relative to glyceraldehyde 3-phosphate dehydrogenase (GAPDH) and triplicate non-template controls for each gene, by RT-qPCR analysis on a LightCycler® 480 instrument with LightCycler® SYBR® Green 1 Master reagent (Roche). […]

[4] = test system: rats subjected to L5 SNL; experiment: Standard model for neuropathic pain (L5 SNL), behavioural studies overall; type: in vivo; conditions: rat L5 SNL; treated for 4 weeks, 3 mg/kg po every other day; versus placebo
Source text: (§5) Adult male Sprague-Dawley rats (150-200 g) were housed under natural light: dark cycles and provided water and food ad lib. They were habituated to the testing paradigms for 3-5 days before data collection. All protocols were approved by the Animal Care and Use Committee of Kings College London and UK Home Office.
(§6) Animals were studied using the standard model for neuropathic pain (lumbar 5 spinal nerve ligation, L5 SNL; see, e.g., Kim et al., 1992). This is the most widely used model in neuropathic pain studies because of its high reproducibility of spontaneous and evoked pain (hyperalgesia, allodynia) and the absence of autotomy (see, e.g., Barrot, 2012; Huang et al., 2016).
(§7) Adult rats received a partial nerve ligation of the left sciatic nerve (see, e.g., Seltzer et al., 1990) under isoflurane (Abbott Animal Health) inhalation anesthesia. A small incision was made midway up the left thigh to expose the sciatic nerve. The nerve was carefully cleared of surrounding connective tissues at a site near the trochanter just distal to the point at which the posterior biceps semitendinosus nerve branches off the common sciatic nerve. […]
(§8) Pain thresholds were measured according to the methods described below, baseline at 1 day prior to surgery, and at 1, 6, 9, 16, 23, and 28 days after surgery.

[5] = test system: rats subjected to L5 SNL; experiment: Pain threshold, mechanical allodynia (von Frey hairs) after nerve ligation; type: in vivo; conditions: rat L5 SNL; 3 mg/kg po every other day for 4 weeks; versus placebo; FIG. 1
Source text: as §5, §6
(§9) Adult rats received a partial nerve ligation of the left sciatic nerve (see, e.g., Seltzer et al., 1990) under isoflurane (Abbott Animal Health) inhalation anesthesia. A small incision was made midway up the left thigh to expose the sciatic nerve. […]
as §8
Static mechanical withdrawal thresholds were assessed by applying von Frey hairs (Touch Test, Stoelting, Ill., USA) to the plantar surface of the hind paw. […] A positive response was recorded when a 40% withdrawal response occurred over 5 applications. […]

[6] = test system: rats subjected to L5 SNL; experiment: Pain threshold, thermal hyperalgesia, cold plate; type: in vivo; conditions: rat L5 SNL; 3 mg/kg po every other day for 4 weeks; plate at 4 °C; versus placebo; FIG. 3
Source text: as §5, §6, §9, §8
Withdrawal of the hind paw in response to painful cold stimulation was assessed using an Incremental Hot/Cold Plate (IITC Life Sciences) set at 4±0.1° C. […] The latency to withdraw the paw was measured to the nearest 0.01 seconds. […]

[7] = test system: rats subjected to L5 SNL; experiment: Pain threshold, thermal hyperalgesia, hot plate (radiant heat paw withdrawal latency); type: in vivo; conditions: rat L5 SNL; 3 mg/kg po every other day for 4 weeks; versus placebo; FIG. 2
Source text: as §5, §6, §7, §8
Thermal hyperalgesia was assessed using a modified method of Hargreaves et al., 1988. […]

[8] = test system: tumour necrosis factor α (TNFα); experiment: RT-qPCR analysis of TNFα expression in spinal cord after nerve injury; type: in vivo; conditions: rat; 14 days after injury; 3 mg/kg po every other day; versus placebo; FIG. 5
Experimental: as §1, §2, §3, §4

[9] = test system: rats subjected to L5 SNL; experiment: Pain threshold, Randall-Selitto test (paw pressure threshold); type: in vivo; conditions: rat L5 SNL; 3 mg/kg po every other day for 4 weeks; versus placebo; FIG. 4
Source text: as §5, §6, §9, §8
Mechanical nociceptive thresholds were evaluated using an Analgesy-Meter (Ugo Basile, Comerio, Italy) (see, e.g., Raghavendra et al., 2003). […] The pressure required to elicit paw withdrawal, the paw pressure threshold, in grams, was determined. […]

Cc1ccc(C)c2oc(-c3nc(-c4ccc(C(=O)O)cc4)no3)cc12 [BOBA-001, 4-(5-(4,7-Dimethylbenzofuran-2-yl)-1,2,4-oxadiazol-3-yl)benzoic acid]
BDNF level in the dorsal horn ipsilateral to peripheral nerve injury [1]: significantly down-regulated
axonal outgrowth [2]: causes axonal outgrowth
TNFR1: GAPDH expression ratio in the dorsal horn ipsilateral to peripheral nerve injury [3]: significantly down-regulated
amelioration of pain [4]: significant amelioration of pain
mechanical paw withdrawal threshold (von Frey) [5]: significant improvement
cold plate paw withdrawal (thermal threshold) [6]: significant improvement
hot plate paw withdrawal (thermal threshold) [7]: significant improvement
TNFα: GAPDH expression ratio in the dorsal horn ipsilateral to peripheral nerve injury [8]: significantly down-regulated
Randall Sellito paw withdrawal threshold (mechanical threshold) [9]: significant improvement
